Test results from BindingDB's records for patent US20250388560 (Hitgen, 2025).

Target: E3 ubiquitin-protein ligase TRIM21 (UniProt P19474)
Experiment: Detection of SPR Binding Assays (Surface Plasmon Resonance Binding Assay) of TRIM21 Compounds
Procedure: The protein fixation buffer, the running buffer A and the running buffer B were prepared and filtered through a […] membrane prior to use. TRIM21 Protein FixationThe running buffer A was used as the protein fixation buffer. The protein fixation buffer and the TRIM21 protein were mixed to prepare a 40.0 µg/mL mixed solution.

E3 ubiquitin-protein ligase TRIM21, sequence (P19474 whole entry): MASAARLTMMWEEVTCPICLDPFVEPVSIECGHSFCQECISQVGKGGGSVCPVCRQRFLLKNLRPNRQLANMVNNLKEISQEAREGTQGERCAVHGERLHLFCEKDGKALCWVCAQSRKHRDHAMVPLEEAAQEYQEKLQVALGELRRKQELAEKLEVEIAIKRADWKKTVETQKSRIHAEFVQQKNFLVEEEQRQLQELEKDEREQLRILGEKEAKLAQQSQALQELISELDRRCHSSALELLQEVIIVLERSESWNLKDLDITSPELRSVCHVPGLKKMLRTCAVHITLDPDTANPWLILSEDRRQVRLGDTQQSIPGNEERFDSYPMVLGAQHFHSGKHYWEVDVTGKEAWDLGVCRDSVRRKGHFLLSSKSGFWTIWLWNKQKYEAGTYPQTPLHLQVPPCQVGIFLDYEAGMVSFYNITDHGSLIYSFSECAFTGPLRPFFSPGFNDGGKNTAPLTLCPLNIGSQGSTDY

Compound | Kd [µM]
CSc1cc(F)ccc1-c1ccc(C(=O)N(C)Cc2cc[nH]c(=O)c2)c(S(C)(=O)=O)c1 [US20250388560, Compound 56] | < 0.01
CN(CC1CCCCC1)C(=O)c1ccc(-c2cccc3occc23)cc1S(C)(=O)=O [US20250388560, Compound 48] | > 10
Cc1cccc(-c2ccc(C(=O)N(C)CC3CCCCC3)c(S(C)(=O)=O)c2)c1 [US20250388560, Compound 44] | > 10
CSc1ccccc1-c1ccc(C(=O)N(C)CCN2CCCCC2)c(S(C)(=O)=O)c1 [US20250388560, Compound 22] | > 10
CSc1ccccc1-c1ccc(C(=O)N(C)CCN2CCOCC2)c(S(C)(=O)=O)c1 [US20250388560, Compound 21] | > 10
CN(CC1CCCCC1)C(=O)c1ccc(-c2cccc3[nH]ccc23)cc1S(C)(=O)=O [US20250388560, Compound 50] | > 10
COc1cc(F)ccc1-c1ccc(C(=O)N(C)Cc2cc[nH]c(=O)c2)c(S(C)(=O)=O)c1 [US20250388560, Compound 57] | < 0.01
CN(CC1CCCCC1)C(=O)c1ccc(-c2ccccc2)cc1S(C)(=O)=O [US20250388560, Compound 58] | > 10
CN(CC1CCCCC1)C(=O)c1ccc(-c2cccc3cc[nH]c23)cc1S(C)(=O)=O [US20250388560, Compound 51] | > 10
CSc1cc(F)ccc1-c1ccc(C(=O)N(C)CC2CCOCC2)c(S(C)(=O)=O)c1 [US20250388560, Compound 55] | < 0.01
